Article PMC5509420 (Molecular Biology of the Cell, 2017)
Where a chain is given by its changes, count along the chain named.

Tests used:
Sse1 [1] = target: T1, Sse1 (Saccharomyces cerevisiae, UniProt P32589); test: fluorescence polarization/anisotropy, saturation binding one-site fit
T1 sequence (P32589 2-693): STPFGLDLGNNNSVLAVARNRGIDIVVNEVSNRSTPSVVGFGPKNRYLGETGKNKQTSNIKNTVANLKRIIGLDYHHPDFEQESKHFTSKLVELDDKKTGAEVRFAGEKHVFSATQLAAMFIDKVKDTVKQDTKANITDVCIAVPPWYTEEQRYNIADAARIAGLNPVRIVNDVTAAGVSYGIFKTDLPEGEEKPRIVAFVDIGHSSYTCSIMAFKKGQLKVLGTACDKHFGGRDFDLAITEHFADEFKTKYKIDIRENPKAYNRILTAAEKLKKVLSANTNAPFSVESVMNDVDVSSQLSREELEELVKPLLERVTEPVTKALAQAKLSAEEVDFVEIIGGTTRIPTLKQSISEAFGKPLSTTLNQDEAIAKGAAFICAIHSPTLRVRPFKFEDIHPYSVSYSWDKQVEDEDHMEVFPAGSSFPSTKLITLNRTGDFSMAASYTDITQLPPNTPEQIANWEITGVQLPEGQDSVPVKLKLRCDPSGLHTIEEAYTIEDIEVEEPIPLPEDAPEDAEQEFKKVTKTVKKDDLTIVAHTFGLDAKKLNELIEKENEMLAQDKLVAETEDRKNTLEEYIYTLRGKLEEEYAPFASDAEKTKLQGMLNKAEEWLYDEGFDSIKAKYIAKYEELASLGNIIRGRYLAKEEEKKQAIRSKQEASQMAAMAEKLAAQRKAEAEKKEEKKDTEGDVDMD

Sse1 [2] = target: T2, Sse1 (Saccharomyces cerevisiae, UniProt P32589, F439L/L433A/M441A/N434P); test: as above
T2 sequence (P32589 2-693 L433A/N434P/F439L/M441A): T1 sequence (P32589 2-693) with L432A, N433P, F438L, M440A

For `O=C(NCCCCCCNc1ncnc2c1ncn2[C@@H]1O[C@H](COP(=O)(O)OP(=O)(O)OP(=O)(O)O)[C@@H](O)[C@H]1O)c1ccc2c(c1)C(=O)OC21c2ccc(O)cc2Oc2cc(O)ccc21` [N^6-(6-amino)hexyl-ATP-5-FAM], which Kd (Sse1 [1]) is on record?
The Kd was 8.6 ± 1.4 µM.

What about the Kd (Sse1 [2]) of the same compound?
Its Kd is 12.1 ± 1.9 µM.
